Reference: ChEMBL document CHEMBL1132705, “Synthesis and biological activities of spiroheterocyclic growth hormone secretagogues” (Bioorg Med Chem Lett, 1999)

Species on record: Rattus norvegicus
Test: Stimulation of growth hormone (GH) release determined in vitro by rat pituitary cell assay.
Assay type: functional
Settings: Pituitary gland cell

Structure (SMILES) | EC50 [nM]
CC(C)(N)C(=O)N[C@H](CCc1ccccc1)C(=O)N1CCC2(CCc3ccccc32)CC1 | 22
CC(C)(N)C(=O)N[C@H](CCc1ccccc1)C(=O)N1CCC2(CC1)CSc1ccccc12 | 57
CC(C)(N)C(=O)N[C@H](CCC1CCCCC1)C(=O)N1CCC2(CCc3ccccc32)CC1 | 21
CC(C)(N)C(=O)N[C@H](COCc1ccccc1)C(=O)N1CCC2(CC1)COc1ccccc12 | 8.5
CC(C)(N)C(=O)N[C@H](CCCc1ccccc1)C(=O)N1CCC2(CC1)CSc1ccccc12 | 4.8
CC(C)(N)C(=O)N[C@H](Cc1c[nH]c2ccccc12)C(=O)N1CCC2(CC1)CSc1ccccc12 | 5.6
CC(C)(N)C(=O)N[C@H](CCc1ccccc1)C(=O)N1CCC2(CC1)CS(=O)(=O)c1ccccc12 | 6
CC(C)(N)C(=O)N[C@H](CCC1CCCCC1)C(=O)N1CCC2(CC1)CS(=O)(=O)c1ccccc12.Cl | 1.4
CC(C)(N)C(=O)N[C@H](CCCc1ccccc1)C(=O)N1CCC2(CC1)COc1ccccc12 | 2.7
CC(C)(N)C(=O)N[C@H](CCCc1ccccc1)C(=O)N1CCC2(CC1)C[S+]([O-])c1ccccc12.Cl (stereo partly specified) | 2
CC(C)(N)C(=O)N[C@H](CCC1CCCCC1)C(=O)N1CCC2(CC1)C[S+]([O-])c1ccccc12 (stereo partly specified) | 3.4
CC(C)(N)C(=O)N[C@H](COCc1ccccc1)C(=O)N1CCC2(CC1)CSc1ccccc12 | 10
CC(C)(N)C(=O)N[C@H](COCc1ccccc1)C(=O)N1CCC2(CC1)CS(=O)(=O)c1ccccc12 | 5
CC(C)(N)C(=O)N[C@H](Cc1c[nH]c2ccccc12)C(=O)N1CCC2(CC1)CS(=O)(=O)c1ccccc12 | 2.1
CC(C)(N)C(=O)N[C@H](CCCc1ccccc1)C(=O)N1CCC2(CC1)CS(=O)(=O)c1ccccc12.Cl | 1.1
CC(C)(N)C(=O)N[C@H](COCc1ccccc1)C(=O)N1CCC2(CC1)C[S+]([O-])c1ccccc12 (stereo partly specified) | 8.5
CC(C)(N)C(=O)N[C@H](CCC1CCCCC1)C(=O)N1CCC2(CC1)CSc1ccccc12 | 8.1

Species on record: Canis familiaris
Test: Minimum effective dose required for oral activity in beagles that caused at least five fold elevation of growth hormone (GH) over basal levels
Assay type: functional
Settings: Canis lupus familiaris, read-out: MED

Structure (SMILES) | minimal effective dose [mg/kg]
CC(C)(N)C(=O)N[C@H](CCCc1ccccc1)C(=O)N1CCC2(CCc3ccccc32)CC1.Cl | 5
CC(C)(N)C(=O)N[C@H](CCC1CCCCC1)C(=O)N1CCC2(CC1)CS(=O)(=O)c1ccccc12.Cl | 0.25
CC(C)(N)C(=O)N[C@H](CCCc1ccccc1)C(=O)N1CCC2(CC1)C[S+]([O-])c1ccccc12.Cl (stereo partly specified) | 0.25
CC(C)(N)C(=O)N[C@H](CCCc1ccccc1)C(=O)N1CCC2(CC1)CS(=O)(=O)c1ccccc12.Cl | 0.125
